{"source": "patent US20230405062A1", "about": "“GOS PRE-CONDITIONING L. REUTERI AND GOS IN FINAL FORMULATION” (BIOGAIA AB, priority 2021, published 2023)", "key": {"[1]": {"test_system": "L. reuteri DSM 17938", "assay": "Survival of L. reuteri in colon (qPCR), short SHIME model", "set-up": "species or system Lactobacillus reuteri", "settings": "for survival of L. reuteri in the colon in presence or absence of GOS: 48 h incubation, qPCR, FIG. 4A", "description": "(§1) In this experiment, a simplified simulation of the continuous Simulator of the Human Microbial Ecosystem (SHIME®) was used. This SHIME® model has been extensively used for more than 20 years for both scientific and industrial projects and has been validated with in vivo parameters (see for example Van den Abbeele et al., Arabinoxylo-Oligosaccharides and Inulin Impact Inter-Individual Variation on Microbial Metabolism and Composition, Which Immunomodulates Human cells, J. Agric. Food chem. 2018, 66(5): 1121-1130).\n(§2) For the current set of experiments a two-stage batch system mimicking the upper gastro-intestinal tract (Upper GIT, stomach and small intestine) and colonic conditions were used as simplified SHIME® system (FIG. 1). Cow milk-based toddler beverage, also called Growing-up-milk, containing minerals adapted for the age group was used in these studies.\nFresh fecal material was collected from an infant donor. Fecal suspension was prepared and mixed with a protectant. At the start of the short-term colonic incubation, the test ingredients (L. reuteri strain and Streptococcus thermophilus strain) were added to sugar-depleted nutritional medium containing basal nutrients present in the colon (e.g., host-derived glycans such as mucin).\nL. reuteri strain and S. thermophilus strain were inoculated at 1×10^9 CFU/reactor. […]\n(§3) L. reuteri strain and pre-conditioned L. reuteri strain were inoculated at 1x10^9 CFU/reactor. L. reuteri were quantified by plating on MRS medium, while S. thermophilus was plated on M17 medium supplemented with lactose. […] Quantities of L. reuteri and S. thermophilus powders were then calculated to target 1x10^9 CFU/colonic reactor. […]\n(§4) Quantitative polymerase chain reaction (qPCR) was performed to selectively enumerate Lactobacilli and Streptococci. qPCR was performed at 0 h and after 48 h of colonic incubation."}, "[2]": {"test_system": "S. thermophilus NCC2496", "assay": "Survival of S. thermophilus in colon (qPCR), short SHIME model", "set-up": "species or system Streptococcus thermophilus", "settings": "48 h incubation, FIG. 4A", "description": "as §1\nas §2, with “studies. […]” for “studies.”\nas §3, §4"}}, "data": [{"substance": "Lactobacillus reuteri DSM 17938 [L. reuteri]", "values": [{"measurement": "survival of L. reuteri in the colon in presence or absence of GOS", "setting": "[1]", "result": "enhanced by the presence of GOS"}, {"measurement": "survival of L. reuteri in the colon in presence or absence of GOS", "setting": "[1]; listed as L. reuteri DSM17938", "result": "positive effect of GOS"}, {"measurement": "survival of L. reuteri in the colon in presence of GOS, pre-conditioned vs non-pre-conditioned", "setting": "[1]; cell counts at 48 h, FIG. 4B", "result": "survives well"}]}, {"substance": "Streptococcus thermophilus NCC2496 [S. thermophilus]", "values": [{"measurement": "survival of S. thermophilus in the colon in presence or absence of GOS", "setting": "[2]", "result": "impaired by the presence of GOS"}, {"measurement": "survival of S. thermophilus in the colon in presence or absence of GOS", "setting": "[2]; listed as Streptococcus thermophilus NCC2496", "result": "negative effect of GOS"}]}]}
